Values of other authors as cited in publication PMC9006653 (The Journal of Biological Chemistry, 2022).

Experiments:
[1] = test system: five cancer cell lines
[2] = test system: 10 human tumor cell lines

Substance: cycloviolacin O2 [cyO2]
- fold more active than 11 Möbius cyclotides [1]: over ten-fold
- fold more potent (cytotoxicity) compared to varv A and varv F [2]: over 20 fold
